Test: xn = mol fraction of the nth substance listed
Details: 101 kPa, Liquid; for mass density: Buoyancy - hydrostatic balance; for electrical conductivity: Alternating current cell with electrodes; for viscosity: Capillary tube (Ostwald / Ubbelohde) method

C[N+](C)(C)CCO.[Cl-] [choline chloride] + OCCO
x1 = 0.5
Details | electrical conductivity [S/m] | mass density [kg/m3] | viscosity [mPa·s]
301.55 K | – | 1048.21 | –
303.04 K | 0.838 | – | –
307.95 K | – | 1046.1 | –
308.15 K | 0.917 | – | –
312.74 K | 0.986 | – | –
313.15 K | – | 1044.28 | 25.3
317.51 K | 1.054 | – | –
317.55 K | – | 1042.81 | –
318.15 K | – | – | 21.7
322.85 K | – | 1041.05 | –
323.15 K | 1.123 | – | 18.3
327.35 K | – | 1039.36 | –
328.15 K | 1.186 | – | 16.3
333.15 K | 1.264 | – | 14.4
333.25 K | – | 1036.72 | –
338.15 K | – | 1034.68 | 12.4
343.15 K | 1.414 | – | 10.5
347.85 K | – | 1030.78 | –
348.15 K | – | – | 9.6
353.15 K | 1.519 | 1028.98 | 8.7

O=C(O)C(=O)O [ethanedioic acid] + C[N+](C)(C)CCO.[Cl-]
x2 = 0.5
Details | electrical conductivity [S/m] | mass density [kg/m3] | viscosity [mPa·s]
300.15 K | – | 1160.6 | –
303.05 K | 0.483 | – | –
303.15 K | – | – | 119.4
304.15 K | – | 1158.66 | –
308.15 K | 0.56 | – | 101.1
312.75 K | 0.638 | 1153.06 | –
313.15 K | – | – | 82.7
317.55 K | 0.727 | – | –
318.15 K | – | 1150.57 | 60.2
323.15 K | 0.808 | 1148.23 | 43.7
328.15 K | 0.886 | – | 37
328.65 K | – | 1146.23 | –
333.15 K | 0.981 | – | 31.9
334.15 K | – | 1142.66 | –
343.15 K | 1.144 | 1137.16 | 20.1
348.15 K | – | – | 16.8
348.65 K | – | 1135.11 | –
353.15 K | 1.288 | 1133.19 | 14.3

OCCN(CCO)CCO [triethanolamine] + C[N+](C)(C)CCO.[Cl-]
x2 = 0.5
Details | electrical conductivity [S/m] | mass density [kg/m3] | viscosity [mPa·s]
312.75 K | 0.013 | – | –
313.15 K | – | 1044.2 | 83
317.55 K | 0.008 | – | –
318.15 K | – | – | 64.8
318.25 K | – | 1042.56 | –
323.15 K | 0.008 | – | 44.9
323.25 K | – | 1040.96 | –
328.15 K | 0.013 | – | 39.9
328.35 K | – | 1039.12 | –
333.15 K | 0.007 | – | 33
333.25 K | – | 1037.41 | –
338.15 K | 0.017 | – | 27.2
338.45 K | – | 1035.68 | –
343.15 K | 0.018 | – | 21.3
343.25 K | – | 1034.09 | –
348.15 K | 0.006 | – | 18.8
348.55 K | – | 1032.59 | –
350.45 K | – | 1032.09 | –
353.15 K | 0.008 | 1031.28 | –

Reference: the NIST ThermoML archive (doi:10.1016/j.fluid.2015.03.025)
